Measured values published in ChEMBL document CHEMBL5723584 (2023).

Columns and labels:
[1] = biological target: BMP-2-inducible protein kinase (Homo sapiens, UniProt Q9NSY1); experiment: Promega NanoBRET (BMP2K)
[2] = biological target: Aurora kinase A (Homo sapiens) (UniProt O14965); experiment: activity of Aurora-A(h) at 1.0 µM in the Eurofins Kinase panel; settings: Compound concentration 1.0 uM
[3] = biological target: Calcium/calmodulin-dependent protein kinase type 1D (Homo sapiens) (UniProt Q8IU85); experiment: activity of CaMKIdelta(h) at 1.0 µM in the Eurofins Kinase panel; settings: Compound concentration 1.0 uM
[4] = biological target: CDC7/Cyclin B1 (Homo sapiens) (UniProt P14635+O00311); experiment: activity of Cdc7/cyclinB1(h) at 1.0 µM in the Eurofins Kinase panel; format: protein-complex assay; settings: Compound concentration 1.0 uM
[5] = biological target: CDK4/Cyclin D3 (Homo sapiens) (UniProt P11802+P30281); experiment: activity of CDK4/cyclinD3(h) at 1.0 µM in the Eurofins Kinase panel; format: protein-complex assay; settings: Compound concentration 1.0 uM
[6] = biological target: Cyclin-dependent kinase-like 4 (Homo sapiens) (UniProt Q5MAI5); experiment: activity of CDKL4(h) at 1.0 µM in the Eurofins Kinase panel; settings: Compound concentration 1.0 uM
[7] = biological target: Casein kinase II subunit alpha' (Homo sapiens) (UniProt P19784); experiment: activity of CK2alpha2(h) at 1.0 µM in the Eurofins Kinase panel; settings: Compound concentration 1.0 uM
[8] = biological target: Dual specificity protein kinase CLK3 (Homo sapiens) (UniProt P49761); experiment: activity of CLK3(h) at 1.0 µM in the Eurofins Kinase panel; settings: Compound concentration 1.0 uM
[9] = biological target: DNA-dependent protein kinase catalytic subunit (Homo sapiens) (UniProt P78527); experiment: activity of DNA-PK(h) at 1.0 µM in the Eurofins Kinase panel; settings: Compound concentration 1.0 uM
[10] = biological target: Ephrin type-B receptor 2 (Homo sapiens) (UniProt P29323); experiment: activity of EphB2(h) at 1.0 µM in the Eurofins Kinase panel; settings: Compound concentration 1.0 uM
[11] = biological target: Receptor tyrosine-protein kinase erbB-2 (Homo sapiens) (UniProt P04626); experiment: activity of ErbB2(h) at 1.0 µM in the Eurofins Kinase panel; settings: Compound concentration 1.0 uM
[12] = biological target: Fibroblast growth factor receptor 2 (Homo sapiens) (UniProt P21802); experiment: activity of FGFR2(h) at 1.0 µM in the Eurofins Kinase panel; settings: Compound concentration 1.0 uM
[13] = biological target: Tyrosine-protein kinase Fyn (Homo sapiens) (UniProt P06241); experiment: activity of Fyn(h) at 1.0 µM in the Eurofins Kinase panel; settings: Compound concentration 1.0 uM
[14] = biological target: G protein-coupled receptor kinase 5 (Homo sapiens) (UniProt P34947); experiment: activity of GRK5(h) at 1.0 µM in the Eurofins Kinase panel; settings: Compound concentration 1.0 uM
[15] = biological target: Rhodopsin kinase GRK7 (Homo sapiens) (UniProt Q8WTQ7); experiment: activity of GRK7(h) at 1.0 µM in the Eurofins Kinase panel; settings: Compound concentration 1.0 uM
[16] = biological target: Mitogen-activated protein kinase 9 (Homo sapiens) (UniProt P45984); experiment: activity of JNK2alpha2(h) at 1.0 µM in the Eurofins Kinase panel; settings: Compound concentration 1.0 uM
[17] = biological target: Serine/threonine-protein kinase STK11 (Homo sapiens) (UniProt Q15831); experiment: activity of LKB1(h) at 1.0 µM in the Eurofins Kinase panel; settings: Compound concentration 1.0 uM
[18] = biological target: Leucine-rich repeat serine/threonine-protein kinase 2 (Homo sapiens) (UniProt Q5S007); experiment: activity of LRRK2(h) at 1.0 µM in the Eurofins Kinase panel; settings: Compound concentration 1.0 uM
[19] = biological target: Mitogen-activated protein kinase kinase kinase 11 (Homo sapiens) (UniProt Q16584); experiment: activity of MLK3(h) at 1.0 µM in the Eurofins Kinase panel; settings: Compound concentration 1.0 uM
[20] = biological target: Mitogen-activated protein kinase kinase kinase 21 (Homo sapiens) (UniProt Q5TCX8); experiment: activity of MLK4(h) at 1.0 µM in the Eurofins Kinase panel; settings: Compound concentration 1.0 uM
[21] = biological target: Serine/threonine-protein kinase Nek7 (Homo sapiens) (UniProt Q8TDX7); experiment: activity of NEK7(h) at 1.0 µM in the Eurofins Kinase panel; settings: Compound concentration 1.0 uM
[22] = biological target: Platelet-derived growth factor receptor alpha (Homo sapiens) (UniProt P16234); experiment: activity of PDGFRalpha(h) at 1.0 µM in the Eurofins Kinase panel; settings: Compound concentration 1.0 uM
[23] = biological target: Phosphorylase b kinase gamma catalytic chain, skeletal muscle/heart isoform (Homo sapiens) (UniProt Q16816); experiment: activity of PhKgamma1(h) at 1.0 µM in the Eurofins Kinase panel; settings: Compound concentration 1.0 uM
[24] = biological target: Phosphatidylinositol 4,5-bisphosphate 3-kinase catalytic subunit gamma isoform (Homo sapiens) (UniProt P48736); experiment: activity of PI3 Kinase (p120gamma)(h) at 1.0 µM in the Eurofins Kinase panel; settings: Compound concentration 1.0 uM
[25] = biological target: cAMP-dependent protein kinase (PKA) (Homo sapiens) (UniProt P22694+P17612+P22612); experiment: activity of PKA(h) at 1.0 µM in the Eurofins Kinase panel; format: protein assay; settings: Compound concentration 1.0 uM
[26] = biological target: Protein kinase C zeta type (Homo sapiens) (UniProt Q05513); experiment: activity of PKCzeta(h) at 1.0 µM in the Eurofins Kinase panel; settings: Compound concentration 1.0 uM
[27] = biological target: Ribosomal protein S6 kinase alpha-1 (Homo sapiens) (UniProt Q15418); experiment: activity of Rsk1(h) at 1.0 µM in the Eurofins Kinase panel; settings: Compound concentration 1.0 uM
[28] = biological target: Ribosomal protein S6 kinase alpha-6 (Homo sapiens) (UniProt Q9UK32); experiment: activity of Rsk4(h) at 1.0 µM in the Eurofins Kinase panel; settings: Compound concentration 1.0 uM
[29] = biological target: Mitogen-activated protein kinase 11 (Homo sapiens) (UniProt Q15759); experiment: activity of SAPK2b(h) at 1.0 µM in the Eurofins Kinase panel; settings: Compound concentration 1.0 uM
[30] = biological target: Serine/threonine-protein kinase SBK1 (Homo sapiens) (UniProt Q52WX2); experiment: activity of SBK1(h) at 1.0 µM in the Eurofins Kinase panel; settings: Compound concentration 1.0 uM
[31] = biological target: Serine/threonine-protein kinase SIK2 (Homo sapiens) (UniProt Q9H0K1); experiment: activity of SIK2(h) at 1.0 µM in the Eurofins Kinase panel; settings: Compound concentration 1.0 uM
[32] = biological target: STE20-like serine/threonine-protein kinase (Homo sapiens) (UniProt Q9H2G2); experiment: activity of SLK(h) at 1.0 µM in the Eurofins Kinase panel; settings: Compound concentration 1.0 uM
[33] = biological target: SRSF protein kinase 1 (Homo sapiens) (UniProt Q96SB4); experiment: activity of SRPK1(h) at 1.0 µM in the Eurofins Kinase panel; settings: Compound concentration 1.0 uM
[34] = biological target: Serine/threonine-protein kinase TAO3 (Homo sapiens) (UniProt Q9H2K8); experiment: activity of TAO3(h) at 1.0 µM in the Eurofins Kinase panel; settings: Compound concentration 1.0 uM
[35] = biological target: Angiopoietin-1 receptor (Homo sapiens) (UniProt Q02763); experiment: activity of Tie2(h) at 1.0 µM in the Eurofins Kinase panel; settings: Compound concentration 1.0 uM
[36] = biological target: High affinity nerve growth factor receptor (Homo sapiens) (UniProt P04629); experiment: activity of TrkA(h) at 1.0 µM in the Eurofins Kinase panel; settings: Compound concentration 1.0 uM
[37] = biological target: Tau-tubulin kinase 2 (Homo sapiens) (UniProt Q6IQ55); experiment: activity of TTBK2(h) at 1.0 µM in the Eurofins Kinase panel; settings: Compound concentration 1.0 uM
[38] = biological target: Serine/threonine-protein kinase WNK3 (Homo sapiens) (UniProt Q9BYP7); experiment: activity of WNK3(h) at 1.0 µM in the Eurofins Kinase panel; settings: Compound concentration 1.0 uM
[39] = biological target: Tyrosine-protein kinase Yes (Homo sapiens) (UniProt P07947); experiment: activity of Yes(h) at 1.0 µM in the Eurofins Kinase panel; settings: Compound concentration 1.0 uM

Serine/threonine-protein kinase WNK3 (Homo sapiens), sequence (Q9BYP7 whole entry): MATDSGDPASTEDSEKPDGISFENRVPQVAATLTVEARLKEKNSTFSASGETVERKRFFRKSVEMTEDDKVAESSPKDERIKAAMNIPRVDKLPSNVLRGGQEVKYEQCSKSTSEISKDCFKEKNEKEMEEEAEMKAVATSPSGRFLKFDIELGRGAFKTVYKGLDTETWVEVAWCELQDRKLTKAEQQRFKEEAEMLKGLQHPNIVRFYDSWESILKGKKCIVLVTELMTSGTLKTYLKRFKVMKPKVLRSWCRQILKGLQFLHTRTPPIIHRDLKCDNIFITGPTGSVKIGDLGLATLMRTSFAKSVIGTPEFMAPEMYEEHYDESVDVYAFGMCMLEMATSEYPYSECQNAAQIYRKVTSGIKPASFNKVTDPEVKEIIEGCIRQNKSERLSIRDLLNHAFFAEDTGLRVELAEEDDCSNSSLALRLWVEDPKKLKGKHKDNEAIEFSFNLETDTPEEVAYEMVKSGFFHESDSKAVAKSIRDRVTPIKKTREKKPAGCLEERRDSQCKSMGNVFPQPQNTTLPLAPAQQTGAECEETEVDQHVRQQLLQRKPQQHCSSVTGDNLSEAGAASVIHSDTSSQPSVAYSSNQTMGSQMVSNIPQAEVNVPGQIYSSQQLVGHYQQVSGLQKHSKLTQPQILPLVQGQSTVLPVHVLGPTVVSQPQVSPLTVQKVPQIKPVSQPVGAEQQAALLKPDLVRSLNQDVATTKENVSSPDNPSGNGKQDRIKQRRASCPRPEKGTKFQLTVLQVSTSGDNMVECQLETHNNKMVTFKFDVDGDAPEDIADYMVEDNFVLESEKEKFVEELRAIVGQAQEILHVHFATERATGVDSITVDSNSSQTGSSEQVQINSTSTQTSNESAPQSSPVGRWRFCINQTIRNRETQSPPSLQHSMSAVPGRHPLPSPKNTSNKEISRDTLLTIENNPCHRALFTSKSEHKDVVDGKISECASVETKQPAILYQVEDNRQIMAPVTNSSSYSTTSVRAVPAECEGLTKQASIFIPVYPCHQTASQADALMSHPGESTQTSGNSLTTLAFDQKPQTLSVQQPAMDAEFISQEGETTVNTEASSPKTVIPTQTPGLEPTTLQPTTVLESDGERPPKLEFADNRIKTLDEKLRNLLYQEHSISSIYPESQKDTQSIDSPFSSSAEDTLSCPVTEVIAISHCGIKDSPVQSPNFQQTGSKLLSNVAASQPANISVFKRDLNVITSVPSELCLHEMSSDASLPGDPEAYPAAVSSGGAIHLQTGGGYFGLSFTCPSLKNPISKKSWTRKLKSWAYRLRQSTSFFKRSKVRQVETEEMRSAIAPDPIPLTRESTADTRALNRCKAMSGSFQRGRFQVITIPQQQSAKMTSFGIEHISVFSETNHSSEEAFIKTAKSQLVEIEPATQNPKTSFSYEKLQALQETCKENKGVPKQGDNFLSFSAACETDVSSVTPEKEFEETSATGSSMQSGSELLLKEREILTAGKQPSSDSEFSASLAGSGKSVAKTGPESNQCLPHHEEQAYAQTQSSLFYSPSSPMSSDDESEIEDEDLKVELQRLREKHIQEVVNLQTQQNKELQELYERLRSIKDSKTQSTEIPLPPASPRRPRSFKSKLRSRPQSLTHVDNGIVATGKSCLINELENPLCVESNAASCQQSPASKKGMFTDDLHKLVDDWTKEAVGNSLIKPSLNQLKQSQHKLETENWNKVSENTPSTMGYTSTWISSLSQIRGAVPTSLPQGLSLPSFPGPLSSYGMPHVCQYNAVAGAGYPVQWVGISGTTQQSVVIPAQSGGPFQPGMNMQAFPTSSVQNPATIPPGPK
Mitogen-activated protein kinase 11 (Homo sapiens), sequence (Q15759 whole entry): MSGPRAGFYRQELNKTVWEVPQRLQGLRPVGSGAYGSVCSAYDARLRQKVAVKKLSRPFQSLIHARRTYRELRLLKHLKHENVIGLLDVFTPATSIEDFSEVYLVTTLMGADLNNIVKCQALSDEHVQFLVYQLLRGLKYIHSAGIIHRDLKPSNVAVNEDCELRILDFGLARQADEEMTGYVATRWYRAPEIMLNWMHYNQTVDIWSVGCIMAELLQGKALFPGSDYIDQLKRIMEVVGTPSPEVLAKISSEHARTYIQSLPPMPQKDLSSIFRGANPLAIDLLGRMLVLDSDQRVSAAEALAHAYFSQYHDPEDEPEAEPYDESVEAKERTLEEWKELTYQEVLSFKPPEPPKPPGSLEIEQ
Leucine-rich repeat serine/threonine-protein kinase 2 (Homo sapiens), sequence (Q5S007 whole entry): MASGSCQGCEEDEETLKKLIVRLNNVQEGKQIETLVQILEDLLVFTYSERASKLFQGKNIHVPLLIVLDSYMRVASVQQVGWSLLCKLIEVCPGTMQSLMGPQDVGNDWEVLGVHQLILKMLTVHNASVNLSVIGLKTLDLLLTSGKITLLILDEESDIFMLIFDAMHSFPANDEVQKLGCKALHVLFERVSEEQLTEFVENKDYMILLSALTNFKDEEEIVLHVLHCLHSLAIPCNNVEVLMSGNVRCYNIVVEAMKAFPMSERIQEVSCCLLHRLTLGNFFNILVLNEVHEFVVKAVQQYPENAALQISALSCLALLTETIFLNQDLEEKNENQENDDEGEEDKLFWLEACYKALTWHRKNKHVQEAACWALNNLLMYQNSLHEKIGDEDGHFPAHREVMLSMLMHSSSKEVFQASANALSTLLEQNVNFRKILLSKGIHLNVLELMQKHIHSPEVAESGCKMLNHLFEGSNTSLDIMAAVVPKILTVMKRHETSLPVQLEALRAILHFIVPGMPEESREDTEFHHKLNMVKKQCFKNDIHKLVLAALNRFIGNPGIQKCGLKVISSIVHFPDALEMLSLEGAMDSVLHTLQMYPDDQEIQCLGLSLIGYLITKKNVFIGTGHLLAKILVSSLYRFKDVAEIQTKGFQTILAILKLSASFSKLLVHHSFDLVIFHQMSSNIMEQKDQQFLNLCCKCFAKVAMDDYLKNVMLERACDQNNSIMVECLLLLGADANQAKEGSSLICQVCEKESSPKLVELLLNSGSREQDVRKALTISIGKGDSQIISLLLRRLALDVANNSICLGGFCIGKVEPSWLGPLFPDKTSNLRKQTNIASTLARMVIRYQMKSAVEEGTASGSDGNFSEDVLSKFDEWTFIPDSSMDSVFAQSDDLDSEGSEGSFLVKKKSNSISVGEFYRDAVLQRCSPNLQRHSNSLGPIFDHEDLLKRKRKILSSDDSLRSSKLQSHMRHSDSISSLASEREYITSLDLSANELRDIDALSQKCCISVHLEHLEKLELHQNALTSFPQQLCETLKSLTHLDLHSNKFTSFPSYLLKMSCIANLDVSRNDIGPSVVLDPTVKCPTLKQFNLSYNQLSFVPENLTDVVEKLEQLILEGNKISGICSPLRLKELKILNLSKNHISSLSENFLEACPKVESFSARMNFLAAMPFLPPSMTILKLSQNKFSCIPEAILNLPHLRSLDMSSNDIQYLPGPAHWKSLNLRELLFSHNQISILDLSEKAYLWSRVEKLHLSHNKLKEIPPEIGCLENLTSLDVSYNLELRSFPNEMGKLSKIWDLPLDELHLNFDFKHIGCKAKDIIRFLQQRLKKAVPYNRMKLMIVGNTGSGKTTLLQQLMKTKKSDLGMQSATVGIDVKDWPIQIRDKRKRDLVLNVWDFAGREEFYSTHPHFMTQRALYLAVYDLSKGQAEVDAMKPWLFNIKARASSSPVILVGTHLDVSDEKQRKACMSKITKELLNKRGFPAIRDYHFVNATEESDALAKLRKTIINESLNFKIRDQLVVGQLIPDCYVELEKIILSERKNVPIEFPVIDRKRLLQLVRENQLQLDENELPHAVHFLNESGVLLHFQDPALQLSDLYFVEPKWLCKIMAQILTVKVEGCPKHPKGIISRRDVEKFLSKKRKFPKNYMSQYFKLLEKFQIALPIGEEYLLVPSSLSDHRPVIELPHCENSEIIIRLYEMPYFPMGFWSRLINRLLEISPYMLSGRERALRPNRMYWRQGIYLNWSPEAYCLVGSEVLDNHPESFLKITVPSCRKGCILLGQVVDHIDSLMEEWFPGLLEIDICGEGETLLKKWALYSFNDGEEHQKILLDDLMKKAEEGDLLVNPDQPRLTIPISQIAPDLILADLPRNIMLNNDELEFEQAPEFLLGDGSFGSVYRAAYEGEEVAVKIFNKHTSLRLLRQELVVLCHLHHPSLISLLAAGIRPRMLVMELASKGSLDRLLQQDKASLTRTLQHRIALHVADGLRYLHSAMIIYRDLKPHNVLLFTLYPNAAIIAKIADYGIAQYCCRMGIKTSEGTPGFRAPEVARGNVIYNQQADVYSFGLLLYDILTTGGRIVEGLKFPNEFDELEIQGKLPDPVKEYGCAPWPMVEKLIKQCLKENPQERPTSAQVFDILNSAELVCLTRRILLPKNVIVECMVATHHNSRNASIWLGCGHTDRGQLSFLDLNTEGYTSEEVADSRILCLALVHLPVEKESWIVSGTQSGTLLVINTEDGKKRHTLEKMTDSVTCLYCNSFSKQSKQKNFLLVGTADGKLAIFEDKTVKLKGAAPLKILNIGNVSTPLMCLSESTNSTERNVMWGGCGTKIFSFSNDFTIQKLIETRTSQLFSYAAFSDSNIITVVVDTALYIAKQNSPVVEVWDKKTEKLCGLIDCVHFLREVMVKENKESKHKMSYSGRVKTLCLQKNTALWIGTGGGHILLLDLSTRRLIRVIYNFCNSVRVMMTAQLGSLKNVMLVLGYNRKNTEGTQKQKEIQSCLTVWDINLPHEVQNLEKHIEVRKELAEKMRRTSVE
Calcium/calmodulin-dependent protein kinase type 1D (Homo sapiens), sequence (Q8IU85 whole entry, looked up): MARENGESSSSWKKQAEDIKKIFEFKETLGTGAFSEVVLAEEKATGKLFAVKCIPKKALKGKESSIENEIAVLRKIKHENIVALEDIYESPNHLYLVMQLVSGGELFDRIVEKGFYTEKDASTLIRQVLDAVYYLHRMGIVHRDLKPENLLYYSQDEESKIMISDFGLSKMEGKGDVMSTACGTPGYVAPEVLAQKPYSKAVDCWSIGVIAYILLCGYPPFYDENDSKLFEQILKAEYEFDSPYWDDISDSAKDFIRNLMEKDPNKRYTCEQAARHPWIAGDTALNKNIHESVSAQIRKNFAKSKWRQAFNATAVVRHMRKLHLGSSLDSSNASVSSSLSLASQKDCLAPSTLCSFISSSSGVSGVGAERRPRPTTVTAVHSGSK

## Cc1cc2c(-c3ccc(NC(=O)[C@H](N)CC(C)(C)C)cc3C)ccnc2[nH]1
[1]
  IC50: > 10 µM (not active)
[2]
  activity: 97%
[3]
  activity: 89%
[4]
  activity: 75%
[5]
  activity: 74%
[6]
  activity: 104%
[7]
  activity: 115%
[8]
  activity: 107%
[9]
  activity: 107%
[10]
  activity: 96%
[11]
  activity: 97%
[12]
  activity: 89%
[13]
  activity: 100%
[14]
  activity: 97%
[15]
  activity: 98%
[16]
  activity: 99%
[17]
  activity: 99%
[18]
  activity: 100%
[19]
  activity: 91%
[20]
  activity: 112%
[21]
  activity: 88%
[22]
  activity: 116%
[23]
  activity: 101%
[24]
  activity: 105%
[25]
  activity: 109%
[26]
  activity: 88%
[27]
  activity: 99%
[28]
  activity: 101%
[29]
  activity: 90%
[30]
  activity: 97%
[31]
  activity: 109%
[32]
  activity: 109%
[33]
  activity: 95%
[34]
  activity: 100%
[35]
  activity: 99%
[36]
  activity: 105%
[37]
  activity: 94%
[38]
  activity: 85%
[39]
  activity: 87%
